According to patent publication US20140249084A1, “PTH-CONTAINING THERAPEUTIC/PROPHYLACTIC AGENT FOR OSTEOPOROSIS, CHARACTERIZED IN THAT PTH IS ADMINISTERED ONCE A WEEK IN A UNIT DOSE OF 100 TO 200 UNITS” (ASAHI KASEI PHARMA CORPORATION, priority 2009, published 2014):
Where a name gives a salt, the structure may show the parent alone.

How the values were obtained:
[1] = tested on: nausea and vomiting associated with administration of the test drug; assay: Prescriptions for nausea and vomiting associated with administration of the test drug; format: in vivo, human; settings: summary of Table 18
Description: The administration period and efficacy of various drugs to treat nausea and vomiting associated with administration of the test drug were studied.

[2] = 20 μg/day, Non-patent Reference 1, cited from earlier work
[3] = conventional daily administration; osteoporosis patients having moderate renal dysfunction; Non-patent Reference 32; cited from earlier work
[4] = tested on: patients having prednisone-induced osteoporosis complicated by arthralgia; settings: daily administration, Non-patent References 23 and 24; cited from earlier work

Molecule	Effect on nausea and vomiting associated with administration of the test drug (summary) [1]	other results
CCN(CC)CCNC(=O)c1cc(Cl)c(N)cc1OC [Primperan, metoclopramide]	effective	
O=c1[nH]c2ccccc2n1CCCN1CCC(n2c(=O)[nH]c3cc(Cl)ccc32)CC1 [Nauzelin, domperidone]	effective	
CCOc1cc(N)c(Cl)cc1C(=O)NCC1CN(Cc2ccc(F)cc2)CCO1 (stereo not drawn) [Gasmotin, mosapride citrate]	effective	
PTH: PTH (parathyroid hormone) in conventional daily administration (20 μg/day), results from cited literature		Patients with persistent hypercalcemia [2]: 3%; Patients with hypercalcemia ([2]; blood samples 4 to 6 hours after administration): 11%; Patients with serum calcium exceeding 11.0 mg/mL after administration [3]: 11.76%
Cc1c(OCC(F)(F)F)ccnc1C[S+]([O-])c1nc2ccccc2[nH]1 (stereo not drawn) [Takepron OD, lansoprazole]	effective	
CC[C@H](C)[C@H](NC(=O)[C@H](CCC(=O)O)NC(=O)[C@H](CO)NC(=O)[C@@H](NC(=O)[C@@H](N)CO)C(C)C)C(=O)N[C@@H](CCC(N)=O)C(=O)N[C@@H](CC(C)C)C(=O)N[C@@H](CCSC)C(=O)N[C@@H](Cc1cnc[nH]1)C(=O)N[C@@H](CC(N)=O)C(=O)N[C@@H](CC(C)C)C(=O)NCC(=O)N[C@@H](CCCCN)C(=O)N[C@@H](Cc1cnc[nH]1)C(=O)N[C@@H](CC(C)C)C(=O)N[C@@H](CC(N)=O)C(=O)N[C@@H](CO)C(=O)N[C@@H](CCSC)C(=O)N[C@@H](CCC(=O)O)C(=O)N[C@@H](CCCN=C(N)N)C(=O)N[C@H](C(=O)N[C@@H](CCC(=O)O)C(=O)N[C@@H](Cc1c[nH]c2ccccc12)C(=O)N[C@@H](CC(C)C)C(=O)N[C@@H](CCCN=C(N)N)C(=O)N[C@@H](CCCCN)C(=O)N[C@@H](CCCCN)C(=O)N[C@@H](CC(C)C)C(=O)N[C@@H](CCC(N)=O)C(=O)N[C@@H](CC(=O)O)C(=O)N[C@H](C(=O)N[C@@H](Cc1cnc[nH]1)C(=O)N[C@@H](CC(N)=O)C(=O)N[C@@H](Cc1ccccc1)C(=O)O)C(C)C)C(C)C [Forteo, teriparatide (rDNA origin) injection]		Bone strengthening effect compared with Fosamax [4]: stronger bone strengthening effect than Fosamax
NC(N)=Nc1nc(CSCCC(N)=NS(N)(=O)=O)cs1 [Gaster D, famotidine]	effective	
